From paper PMC4076210, “Discovery of Novel AKT Inhibitors with Enhanced Anti-Tumor Effects in Combination with the MEK Inhibitor” (PLoS ONE, 2014)

Test system: solid tumor cell lines
Assay: 3-day proliferation assay (CellTiter-Glo)
Type: cell-based, human
Conditions: for IC50: Homo sapiens
Procedure: Various tumor cell lines were obtained from different sources including; the American Type Cell Culture Collection, the Developmental Therapeutics Program, the National Cancer Institute, the German Resource Center for Biological Material and the European Collection of Animal Cell Cultures. Cell lines were typically grown in […] containing 10% FBS. Some cell lines were grown in media specified by the vendor. A 3-day proliferation assay using CellTiter-Glo (CTG, Promega) was performed to measure the growth inhibition by the compounds at 0–30 µM. Cell growth was determined relative to untreated (DMSO) controls. EC50's were calculated from inhibition curves using a 4- or 6-parameter fitting algorithm in the Assay Client application.

Cn1ncc(Cl)c1-c1cc(C(=O)N[C@H](CN)Cc2cccc(F)c2)sc1Cl [GSK2110183]
solid tumor cell lines with EC50<1 µM (178 cell lines, 3 days, CTG): 21%
IC50 (22Rv1, 22Rv1, Prostate): 0.706 µM
IC50 (647-V, 647V, Bladder): 11.5 µM
IC50 (786-0, 786-O, Kidney): 1.64 µM
IC50 (A204, A204, Sarcoma): 2.14 µM
IC50 (A549, A549, Lung): 3.28 µM
IC50 (A673, A673, Sarcoma): 19.9 µM
IC50 (A2780, A2780, Ovary): 4.03 µM
IC50 (A-375, A375, Skin): 8.68 µM
IC50 (A-427, A427, Lung): 19 µM
IC50 (ACHN, Kidney): 3.71 µM
IC50 (AGS, Stomach): 0.964 µM
IC50 (BE(2)-C, BE2C, Neuroblastoma): 1.47 µM
IC50 (BFTC-905, BFTC905, Bladder): 2.64 µM
IC50 (BT-20, BT20, Breast): 0.311 µM
IC50 (BXPC-3, BXPC3, Pancreas): > 30 µM
IC50 (C3A, Liver): 1.75 µM
IC50 (C32TG, Skin): 0.975 µM
IC50 (C-33-A, C-33A, Cervix): 0.541 µM
IC50 (C-41, Cervix): 15.2 µM
IC50 (CAL-27, CAL27, Head & Neck): 8.01 µM
IC50 (CAL-62, CAL62, Thyroid): 10.4 µM
IC50 (CCF-STTG1, CCFSTTG1, Brain): 0.673 µM
IC50 (CGTH-W-1, CGTHW1, Thyroid): 3.07 µM
IC50 (CHL-1, CHL1, Skin): 3.79 µM
IC50 (CHP-212, CHP212, Neuroblastoma): 2.32 µM
IC50 (COLO 205, COLO205, Colon): 7.58 µM
IC50 (COLO 320DM, COLO320DM, Colon): 1.34 µM
IC50 (COLO 704, COLO704, Ovary): 0.339 µM
IC50 (COR-L23, CORL23, Lung): 3.92 µM
IC50 (Calu-3, CALU3, Lung): 3.31 µM
IC50 (Calu-6, CALU6, Lung): 5.49 µM
IC50 (Caov-3, CAOV3, Ovary): 6.18 µM
IC50 (Capan-2, Capan2, Pancreas): 9.38 µM
IC50 (DBTRG-05MG, DBTRG05MG, Brain): 4.43 µM
IC50 (DKMG, Brain): 3.68 µM
IC50 (DLD-1, DLD1, Colon): 8.45 µM
IC50 (DU-145, DU145, Prostate): 6.54 µM
IC50 (DU-4475, DU4475, Breast): 2.27 µM
IC50 (DoTc2-4510, DoTc24510, Cervix): 2.25 µM
IC50 (EFM-19, EFM19, Breast): 0.117 µM
IC50 (EKVX, Lung): 5.54 µM
IC50 (ES2, Ovary): 4.52 µM
IC50 (FaDu, Head & Neck): 10.5 µM
IC50 (G-401, G401, Head & Neck): 1.12 µM
IC50 (GCT, Sarcoma): 5.89 µM
IC50 (H4, Brain): 2.99 µM
IC50 (HCC70, HCC70, Breast): 0.081 µM
IC50 (HCC1954, HCC1954, Breast): 0.32 µM
IC50 (HCC 2998, HCC2998, Colon): 2.2 µM
IC50 (HCT-116, HCT116, Colon): 5.64 µM
IC50 (HMCB, Skin): 4.46 µM
IC50 (HN5, Head & Neck): 2.96 µM
IC50 (HOS, Sarcoma): 2.46 µM
IC50 (HPAF-II, HPAFII, Pancreas): 7.49 µM
IC50 (HT3, Cervix): 2.66 µM
IC50 (HT-29, HT29, Colon): 2.02 µM
IC50 (HT-1080, HT1080, Sarcoma): 7.92 µM
IC50 (HUVEC, Normal Endothelial): 3 µM
IC50 (HeLa, Cervix): 6.33 µM
IC50 (Hep3B, Liver): 0.399 µM
IC50 (Hs746T, Stomach): 2.07 µM
IC50 (IGROV-1, IGROV1, Ovary): 0.054 µM
IC50 (J82, Bladder): 2.07 µM
IC50 (KATO III, KATOIII, Stomach): 0.571 µM
IC50 (KHOS-240S, KHOS240S, Sarcoma): 8.15 µM
IC50 (KM12, KM12, Colon): 6.49 µM
IC50 (KPL-1, KPL1, Breast): 3.83 µM
IC50 (KYSE-30, KYSE30, Oesophagus): 3.44 µM
IC50 (LNCaP, Prostate): 0.076 µM
IC50 (LS174T, Colon): 3.47 µM
IC50 (LS-1034, LS1034, Colon): 3.17 µM
IC50 (M14, Skin): 4.88 µM
IC50 (MC-IXC, MCIXC, Neuroblastoma): 1.05 µM
IC50 (MCF7, MCF7, Breast): 0.473 µM
IC50 (MCF-10A, MCF10A, Normal Breast): 0.644 µM
IC50 (MDA-MB-175-VII, MDAMB175-VII, Breast): 0.189 µM
IC50 (MDA-MB-231, MDAMB231, Breast): 13.2 µM
IC50 (MDA-MB-453, MDAMB453, Breast): 1.17 µM
IC50 (MDA-MB-468, MDAMB468, Breast): 0.995 µM
IC50 (MES-SA, MESSA, Sarcoma): 0.66 µM
IC50 (MIA PaCa-2, MiaPaCa, Pancreas): 1.71 µM
IC50 (NCI-H69, NCIH69, Lung): 1.39 µM
IC50 (NCI-H82, NCIH82, Lung): 29.3 µM
IC50 (NCI-H146, NCIH146, Lung): 11.3 µM
IC50 (NCI-H157, NCIH157, Lung): 2.03 µM
IC50 (NCI-H187, NCIH187, Lung): 0.263 µM
IC50 (NCI-H209, NCI-H209, Lung): 4.43 µM
IC50 (NCI-H226, NCIH226, Lung): 6.14 µM
IC50 (NCI-H292, NCIH292, Lung): 4.82 µM
IC50 (NCI-H322, NCIH322, Lung): 9.34 µM
IC50 (NCI-H358, NCI-H358, Lung): 1.93 µM
IC50 (NCI-H446, NCIH446, Lung): 1.14 µM
IC50 (NCI-H460, NCIH460, Lung): 3.73 µM
IC50 (NCI-H508, NCIH508, Lung): 0.309 µM
IC50 (NCI-H520, NCIH520, Lung): 0.935 µM
IC50 (NCI-H630, NCIH630, Lung): 5.95 µM
IC50 (NCI-H661, NCIH661, Lung): 5.5 µM
IC50 (NCI-H716, NCIH716, Colon): 3.85 µM
IC50 (NCI-H747, NCIH747, Lung): 2.05 µM
IC50 (NCI-H1563, NCIH1563, Lung): 0.582 µM
IC50 (NCI-H1792, NCIH1792, Lung): 4.68 µM
IC50 (NCI-H2030, NCIH2030, Lung): 5.67 µM
IC50 (NCI-H2052, NCIH2052, Lung): 4.75 µM
IC50 (NCI-H2081, NCIH2081, Lung): 0.73 µM
IC50 (NCI-H2122, NCIH2122, Lung): 2.97 µM
IC50 (NCI-H2170, NCI-H2170, Lung): 1.56 µM
IC50 (NCI-H2228, NCIH2228, Lung): 0.926 µM
IC50 (NCI-N87, NCIN87, Stomach): 1.29 µM
IC50 (NCI/ADR-RES, NCIADRRES, Breast): 12.3 µM
IC50 (OE19, OE19, Oesophagus): 5.52 µM
IC50 (OE21, OE21, Oesophagus): 0.256 µM
IC50 (OE33, OE33, Oesophagus): 8.07 µM
IC50 (OV-90, OV90, Ovary): 4.69 µM
IC50 (OVCAR-3, OVCAR3, Ovary): 5.85 µM
IC50 (OVCAR-4, OVCAR4, Ovary): 20 µM
IC50 (OVCAR-5, OVCAR5, Ovary): 7.72 µM
IC50 (PANC-1, Panc1, Pancreas): 4.42 µM
IC50 (PC3, Prostate): 3.02 µM
IC50 (PL45, PL45, Pancreas): 6.98 µM
IC50 (Panc 02.03, Panc02.03, Pancreas): 14.4 µM
IC50 (RD, Sarcoma): 11.3 µM
IC50 (RD-ES, RDES, Sarcoma): 2.41 µM
IC50 (RKO, Colon): 1.46 µM
IC50 (SAOS-2, SAOS2, Sarcoma): 5.35 µM
IC50 (SCC12, SCC12, Head & Neck): 3.85 µM
IC50 (SCC-9, SCC9, Head & Neck): 6.58 µM
IC50 (SCC-13, SCC-13, Head & Neck): 18.8 µM
IC50 (SCC-15, SCC15, Head & Neck): 4.17 µM
IC50 (SCC-25, SCC-25, Head & Neck): 4.69 µM
IC50 (SCLC3, Lung): 0.22 µM
IC50 (SF-295, SF295, Brain): 0.835 µM
IC50 (SF-539, SF539, Brain): 0.891 µM
IC50 (SH4, Skin): > 30 µM
IC50 (SHP77, SHP77, Lung): 5.22 µM
IC50 (SJRH30, SJRH30, Sarcoma): 0.919 µM
IC50 (SK-BR-3, SKBR3, Breast): 0.371 µM
IC50 (SK-LMS-1, SKLMS1, Sarcoma): 7.98 µM
IC50 (SK-MEL-1, SKMEL1, Skin): 2.14 µM
IC50 (SK-MEL-28, SKMEL28, Skin): 3.23 µM
IC50 (SK-MES-1, SKMES-1, Lung): 4.55 µM
IC50 (SK-N-AS, SKNAS, Neuroblastoma): 7.09 µM
IC50 (SK-OV-3, SKOV3, Ovary): 1.1 µM
IC50 (SK-UT-1, SKUT1, Sarcoma): 0.504 µM
IC50 (SKNF1, Neuroblastoma): 0.886 µM
IC50 (SN12C, Kidney): > 30 µM
IC50 (SNB-75, SNB75, Brain): 1.47 µM
IC50 (SNU1, SNU1, Stomach): 2.15 µM
IC50 (SNU-5, SNU5, Stomach): 11.8 µM
IC50 (SNU-16, SNU16, Stomach): 6.58 µM
IC50 (SNU-398, SNU398, Liver): 27.3 µM
IC50 (SNU-449, SNU449, Liver): 6.66 µM
IC50 (SW48, SW48, Colon): 0.807 µM
IC50 (SW480, SW480, Colon): > 30 µM
IC50 (SW579, SW579, Thyroid): 1.82 µM
IC50 (SW684, SW684, Sarcoma): 1.04 µM
IC50 (SW756, SW756, Cervix): 10.4 µM
IC50 (SW780, SW780, Bladder): 8.44 µM
IC50 (SW872, SW872, Sarcoma): 0.919 µM
IC50 (SW900, SW900, Lung): 15.6 µM
IC50 (SW1088, SW1088, Brain): 0.952 µM
IC50 (SW1417, SW1417, Colon): 3.96 µM
IC50 (SW1783, SW1783, Brain): 0.592 µM
IC50 (SW1990, SW1990, Pancreas): 13.3 µM
IC50 (Skut1B, Sarcoma): 0.021 µM
IC50 (T47D, T-47D, Breast): 0.331 µM
IC50 (T84, Colon): 8.49 µM
IC50 (TE 381.T, TE381T, Sarcoma): 1.63 µM
IC50 (TK-10, TK10, Kidney): 4.8 µM
IC50 (U20S, Sarcoma): > 30 µM
IC50 (U138-MG, U138MG, Brain): 2.81 µM
IC50 (U-87 MG, U87MG, Brain): 4.97 µM
IC50 (U-251, U251, Brain): 2.43 µM
IC50 (UACC-62, UACC62, Skin): 2.09 µM
IC50 (UACC-257, UACC257, Skin): 5.26 µM
IC50 (UMUC3, UMUC3, Bladder): 10 µM
IC50 (YAPC, Pancreas): 8.3 µM
IC50 (ZR-75-1, ZR75-1, Breast): 0.088 µM
